Structures can show the parent of a compound that is named as a salt. Where two headings read alike, the source gives them in different places. One block for each molecule: values may come before it.
Assays:
[1] = Solubility / saturation concentration of TMT-Na salts and salt mixtures in water; format: physicochemical; details: for solubility in water: temperature not given; for Solubility of the TMT-Na salt/-salt mixture / solubility: water; for solubility: read-out: saturation concentration of TMT-Na3 in water
Excerpt: That is, in each case, more than 2 hydrogen atoms of the TMT-H3 are replaced.

[2] = Titration curve of TMT-H3; format: physicochemical
Excerpt: In the sequence named, the jump are to be associated with the salts TMT-Na, TMT-Na2 and TMT-Na3.

[3] = Solubility / saturation concentration of TMT-Na salts and salt mixtures in water; format: physicochemical
[4] = Stability in storage of aqueous solutions (crystallization); format: physicochemical; details: in words
Experimental: Aqueous solutions of TMT-Na3 are commercially available and are used for separating heavy metal from the flue gas wash water of garbage incinerators, waste water in the mining industry and in galvanotechnical and chemical plants. The commercially available, aqueous TMT-NA3 solution has a concentration of 15% by weight (Publication TMT 15 of the Degussa company, 3/1986). The saturation concentration of TMT-Na3 in water is approximately 16% by weight at 0° C. and approximately 25% by weight at 20° C. […] Such a crystallization makes it considerably more difficult to handle the product. If heat-insulated or heated transport and storage containers were used, TMT-Na3 solutions with a higher concentration could be considered as a commercially supplied form of this product; however, this would make the product and its use more expensive.
The object of the present invention is to provide aqueous solutions of sodium salts of trimercapto-s-triazine which have a higher concentration of active substance than current commercially available solutions. Increasing the concentration makes possible a reduction in transportation and storage costs. The solutions should be stable in storage, that is, no crystallization of the active substance or of its salt should occur during storage. […]

[5] = disclosure of DE-AS 22 40 549; cited from earlier work

Structure (SMILES): Sc1nc(S)nc(S)n1 [TMT-H3, Trimercapto-s-triazine]
- solubility in water (in words) ([1]; in words): practically insoluble in water
- solubility in water [1]: less than 0.5 % by weight
- first jump of the titration curve ([2]; associated with TMT-Na): around 7 pH
- second jump of the titration curve ([2]; associated with TMT-Na2): around 10.5 pH
- third jump of the titration curve ([2]; associated with TMT-Na3): around 12.5 pH

Structure (SMILES): Sc1nc(S)nc(S)n1 [TMT-Na2.6 H2 0, hexahydrate of trimercapto-s-triazine disodium salt]
- solubility in water (in words) ([3]; in words, disodium salt): extraordinarily high solubility in water

Structure (SMILES): Sc1nc(S)nc(S)n1.[Na].[Na].[Na] [TMT-Na3, trimercapto-s-triazine trisodium salt]
- stability in storage (crystallization) [4]: crystallizes if the concentration is higher
- solubility of TMT-Na3 ([1]; 0° C.): approximately 0.78 mole TMT-Na3 per liter of H2 0
- Solubility of the TMT-Na salt/-salt mixture ([1]; 0° C.): 0.78 mole TMT salt/1 H2 O
- solubility of TMT-Na3 ([1]; 20° C.): approximately 1.37 mole TMT-Na3 per liter of H2 0
- Solubility of the TMT-Na salt/-salt mixture ([1]; 20° C.): 1.37 mole TMT salt/1 H2 O
- solubility in water (in words) ([1]; in words): good solubility
- solubility ([1]; 0° C.): ~160 mg/mL
- solubility ([1]; 20° C.): ~250 mg/mL

More lines, main results first:

- solubility in water (in words) ([1]; in words): unusually high water solubility
Structure (SMILES): Sc1nc(S)nc(S)n1 [TMT-Na2, disodium salt of trimercapto-s-triazine]
- solubility relative to that of TMT-Na3 ([1]; in words, comparison with TMT-Na3): considerably above that of the readily soluble TMT-Na3

- solubility in water (in words) ([1]; in words): slightly soluble in water
- solubility in water [1]: approximately 3 % by weight
- precipitation from solution ([3]; less than 2 hydrogen atoms of trimercapto-s-triazine replaced by Na ions): precipitates
Structure (SMILES): Sc1nc(S)nc(S)n1 [TMT-Na, monosodium salt of trimercapto-s-triazine]
- solubility in water [5]: approximately 3 % by weight

Source: patent publication US5258515A, “Aqueous solutions of sodium salts of trimercapto-s-triazine, their preparation and use” (Degussa Aktiengesellschaft, priority 1989, dated 1993)
